Results from PubChem BioAssay AID256 (DTP/NCI, 2004).
Values joined by “and” are separate entries in the source; they are usually repeats but may differ in a detail not shown here. Equal entries are not always repeated. Inconclusive results and toxic doses are left out. The calls were made as follows: active = survival T/C of 150% or more; inactive = T/C below 125% in these data.

Tested on: CD2F1 mice, L1210 leukemia ip, survival T/C
Test: NCI In Vivo Anticancer Drug Screen. Data for tumor model L1210 Leukemia (intraperitoneal) in CD2F1 (CDF1) mice
Conditions: higher = longer survival
Method in brief: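 Compound-dosed mice with transplantable tumor versus matched vehicle controls; endpoint ratio T/C reported.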

[1] = endpoint: mean survival time, dose: 100.0 mg/kg/injection, schedule: Q04DX003 (ip), vehicle: saline with Tween-80
[2] = endpoint: mean survival time, dose: 200.0 mg/kg/injection, schedule: Q04DX003 (ip), vehicle: saline with Tween-80
[3] = endpoint: mean survival time, dose: 400.0 mg/kg/injection, schedule: Q04DX003 (ip), vehicle: saline with Tween-80
[4] = endpoint: mean survival time, dose: 25.0 mg/kg/injection, schedule: Q04DX003 (ip), vehicle: saline
[5] = endpoint: mean survival time, dose: 50.0 mg/kg/injection, schedule: Q04DX003 (ip), vehicle: saline
[6] = endpoint: mean survival time, dose: 100.0 mg/kg/injection, schedule: Q04DX003 (ip), vehicle: saline
[7] = endpoint: mean survival time, dose: 100.0 mg/kg/injection, schedule: Q01DX001 (ip), vehicle: saline with Tween-80
[8] = endpoint: mean survival time, dose: 200.0 mg/kg/injection, schedule: Q01DX001 (ip), vehicle: saline with Tween-80
[9] = endpoint: mean survival time, dose: 400.0 mg/kg/injection, schedule: Q01DX001 (ip), vehicle: saline with Tween-80
[10] = endpoint: mean survival time, dose: 75.0 mg/kg/injection, schedule: Q01DX001 (ip), vehicle: other
[11] = endpoint: mean survival time, dose: 150.0 mg/kg/injection, schedule: Q01DX001 (ip), vehicle: other
[12] = endpoint: mean survival time, dose: 100.0 mg/kg/injection, schedule: Q04DX002 (ip), vehicle: saline with Tween-80
[13] = endpoint: mean survival time, dose: 200.0 mg/kg/injection, schedule: Q04DX002 (ip), vehicle: saline with Tween-80
[14] = endpoint: mean survival time, dose: 400.0 mg/kg/injection, schedule: Q04DX002 (ip), vehicle: saline with Tween-80
[15] = endpoint: mean survival time, dose: 50.0 mg/kg/injection, schedule: Q01DX009 (ip), vehicle: saline with Tween-80
[16] = endpoint: mean survival time, dose: 100.0 mg/kg/injection, schedule: Q01DX009 (ip), vehicle: saline with Tween-80
[17] = endpoint: mean survival time, dose: 200.0 mg/kg/injection, schedule: Q01DX009 (ip), vehicle: saline with Tween-80
[18] = endpoint: mean survival time, dose: 400.0 mg/kg/injection, schedule: Q01DX009 (ip), vehicle: saline with Tween-80
[19] = endpoint: mean survival time, dose: 25.0 mg/kg/injection, schedule: Q01DX009 (ip), vehicle: water
[20] = endpoint: mean survival time, dose: 6.25 mg/kg/injection, schedule: Q01DX009 (ip), vehicle: saline
[21] = endpoint: mean survival time, dose: 12.5 mg/kg/injection, schedule: Q01DX009 (ip), vehicle: saline

Measured: T/C

CSc1ncnc2c(C3OC(COC(C)=O)C(OC(C)=O)C3OC(C)=O)[nH]nc12 (centres undefined)
inactive: endpoint: median survival time, dose: 8.0 mg/kg/injection, schedule: Q01DX005 (ip), vehicle: distilled water + Tween-80 94 % of control | endpoint: median survival time, dose: 16.0 mg/kg/injection, schedule: Q01DX005 (ip), vehicle: distilled water + Tween-80 103 % of control | endpoint: median survival time, dose: 32.0 mg/kg/injection, schedule: Q01DX005 (ip), vehicle: distilled water + Tween-80 96 % of control | endpoint: median survival time, dose: 64.0 mg/kg/injection, schedule: Q01DX005 (ip), vehicle: distilled water + Tween-80 103 % of control | endpoint: median survival time, dose: 128.0 mg/kg/injection, schedule: Q01DX005 (ip), vehicle: distilled water + Tween-80 106 % of control

CCCCCC(O)CCCCC
inactive: [1] 98 % of control | [2] 94 % of control | [3] 98 % of control

CCOC(=O)C(=O)Nc1onc(C)c1NC(=O)C(=O)OCC
inactive: [1] 100 % of control | [2] 107 % of control | [3] 96 % of control

Nc1cc(C(F)(F)F)ccc1/C(=C/c1ccc(Cl)cc1)C(=O)O
inactive: endpoint: mean survival time, dose: 75.0 mg/kg/injection, schedule: Q04DX003 (ip), vehicle: saline 103 % of control | endpoint: mean survival time, dose: 150.0 mg/kg/injection, schedule: Q04DX003 (ip), vehicle: saline 102 % of control

Cc1nc(C)c(Br)s1
inactive: [4] 112 % of control | [5] 104 % of control | [6] 106 % of control

O=CC(CO)OC(C=O)n1cnc2c(=O)[nH]c(=O)[nH]c21 (centres undefined)
inactive: endpoint: mean survival time, dose: 12.5 mg/kg/injection, schedule: Q01DX005 (ip), vehicle: water 101 % of control | endpoint: mean survival time, dose: 25.0 mg/kg/injection, schedule: Q01DX005 (ip), vehicle: water 106 % of control | endpoint: mean survival time, dose: 50.0 mg/kg/injection, schedule: Q01DX005 (ip), vehicle: water 106 % of control | endpoint: mean survival time, dose: 100.0 mg/kg/injection, schedule: Q01DX005 (ip), vehicle: water 115 % of control

CC12CCC(=O)CC1CCC1C2CCC2(C)C(C(=O)O)CCC12 (centres undefined)
inactive: [7] 96 % of control | [8] 102 % of control | [9] 96 % of control

O=C(O/N=C(/CBr)c1ccccc1)c1ccccc1
inactive: [10] 101 % of control | [11] 97 % of control | endpoint: mean survival time, dose: 300.0 mg/kg/injection, schedule: Q01DX001 (ip), vehicle: other 103 % of control

C=C(Br)CNC(=O)C(C)C
inactive: endpoint: mean survival time, dose: 5.0 mg/kg/injection, schedule: Q01DX009 (ip), vehicle: saline with Tween-80 98 % of control | endpoint: mean survival time, dose: 10.0 mg/kg/injection, schedule: Q01DX009 (ip), vehicle: saline with Tween-80 100 % of control | endpoint: mean survival time, dose: 20.0 mg/kg/injection, schedule: Q01DX009 (ip), vehicle: saline with Tween-80 100 % of control

COC(=O)C1(c2ccccn2)CCN(C)CC1
inactive: endpoint: mean survival time, dose: 100.0 mg/kg/injection, schedule: Q01DX009 (ip), vehicle: saline 102 % of control | endpoint: mean survival time, dose: 200.0 mg/kg/injection, schedule: Q01DX009 (ip), vehicle: saline 98 % of control | endpoint: mean survival time, dose: 400.0 mg/kg/injection, schedule: Q01DX009 (ip), vehicle: saline 101 % of control

CC(C)=C(CO)CCC(C)C
inactive: [1] 100 % of control | [2] 103 % of control

O=C(C(=C(c1ccccc1)c1ccccc1)c1ccccc1)c1ccccc1
inactive: [12] 93 % of control | [13] 96 % of control | [14] 93 % of control

Cc1ccc(S(=O)(=O)Nc2cccc3c(NS(=O)(=O)c4ccc(C)cc4)cccc23)cc1
inactive: [1] 96 % of control | [2] 100 % of control | [3] 96 % of control

CC(C)CN1CCOCC1
inactive: [15] 95 % of control | [16] 97 % of control | [1] 107 % of control | [2] 98 % of control

NC(=S)Nc1ccc(C(=O)O)cc1
inactive: [16] 96 % of control | [1] 93 % of control | [17] 100 % of control | [2] 94 % of control | [18] 86 % of control | [3] 90 % of control

COc1ccc(Cc2nc(C)cc3cc(OC)c(OC)cc23)cc1OC
inactive: [19] 92 % of control

CCn1c(C)cc(=O)c2ccccc21
inactive: [12] 105 % of control | [13] 94 % of control

Cc1ccc2[nH]c(=O)[nH]c(=O)c2n1
inactive: [10] 98 % of control | [11] 98 % of control

O=C1C=C(NNc2ccccc2)CCC1
inactive: [15] 104 % of control | [16] 100 % of control

COc1cccc2c1C(=O)c1c(O)c3c(c(O)c1C2=O)C[C@@](O)(C(=O)CN1CCOCC1)C[C@@H]3OC1CC(N)C(O)C(C)O1 (some centres undefined)
inactive: endpoint: mean survival time, dose: 6.25 mg/kg/injection, schedule: Q04DX003 (ip), vehicle: water 90 % of control | endpoint: mean survival time, dose: 12.5 mg/kg/injection, schedule: Q04DX003 (ip), vehicle: water 91 % of control | endpoint: mean survival time, dose: 25.0 mg/kg/injection, schedule: Q04DX003 (ip), vehicle: water 105 % of control | endpoint: mean survival time, dose: 50.0 mg/kg/injection, schedule: Q04DX003 (ip), vehicle: water 91 % of control

O=C1NCCCS1(=O)=O
inactive: endpoint: mean survival time, dose: 75.0 mg/kg/injection, schedule: Q01DX001 (ip), vehicle: saline 108 % of control

O=C1/C(=C/c2ccccc2)CCSc2ccccc21
inactive: [7] 90 % of control | [8] 94 % of control | [9] 90 % of control

CC/C=C/C(C)OC(=N)C(Cl)(Cl)Cl (centres undefined)
inactive: [12] 103 % of control | [13] 100 % of control | [14] 97 % of control

COc1ccc(C(Sc2ccccc2)c2ccc(OC)cc2)cc1
inactive: [16] 95 % of control | [1] 95 % of control | [17] 90 % of control | [2] 95 % of control | [18] 86 % of control | [3] 96 % of control

OC(CS)C(c1ccccc1)c1ccccc1 (centres undefined)
inactive: [1] 98 % of control | [2] 93 % of control | [3] 96 % of control

Cc1ccc(S(=O)(=O)N2CCC(=O)c3ccccc32)cc1
inactive: [16] 95 % of control | [1] 101 % of control | [17] 97 % of control | [2] 98 % of control | [18] 95 % of control | [3] 103 % of control

Nc1cc(N)c2cccnc2c1O
inactive: [20] 101 % of control | [21] 114 % of control

COc1cccc(C(=O)c2ccncc2)c1OC
inactive: [19] 91 % of control | endpoint: mean survival time, dose: 100.0 mg/kg/injection, schedule: Q01DX009 (ip), vehicle: water 95 % of control | endpoint: mean survival time, dose: 200.0 mg/kg/injection, schedule: Q01DX009 (ip), vehicle: water 90 % of control

CC1=CCc2c(c(NS(=O)(=O)c3ccccc3)c3ccccc3c2NS(=O)(=O)c2ccccc2)C1
inactive: endpoint: mean survival time, dose: 37.5 mg/kg/injection, schedule: Q01DX001 (ip), vehicle: saline sonified 95 % of control | endpoint: mean survival time, dose: 75.0 mg/kg/injection, schedule: Q01DX001 (ip), vehicle: saline sonified 96 % of control | endpoint: mean survival time, dose: 150.0 mg/kg/injection, schedule: Q01DX001 (ip), vehicle: saline sonified 89 % of control

c1ccc(-c2nncnn2)cc1
inactive: [1] 92 % of control

CCOC(=O)C(CCC(=O)O)NC(=O)OCc1ccccc1 (centres undefined)
inactive: [1] 97 % of control | [2] 99 % of control | [3] 91 % of control

C=C(C)CNCC(=C)C
inactive: [4] 102 % of control | [5] 98 % of control | [6] 102 % of control and 106 % of control

COc1ccc2[nH]c(-c3ccccc3)cc2c1
inactive: [1] 93 % of control | [2] 88 % of control | [3] 98 % of control

Cc1ccc2nc(-c3cccc([N+](=O)[O-])c3)oc(=O)c2c1
inactive: [16] 97 % of control | [17] 96 % of control | [18] 94 % of control

NC(N)=NC(N)=Nc1ccc(-c2ccc(N=C(N)N=C(N)N)cc2)cc1
inactive: endpoint: mean survival time, dose: 0.78 mg/kg/injection, schedule: Q01DX009 (ip), vehicle: saline 100 % of control | endpoint: mean survival time, dose: 1.56 mg/kg/injection, schedule: Q01DX009 (ip), vehicle: saline 105 % of control | endpoint: mean survival time, dose: 3.13 mg/kg/injection, schedule: Q01DX009 (ip), vehicle: saline 102 % of control | [20] 111 % of control | [21] 104 % of control | endpoint: mean survival time, dose: 25.0 mg/kg/injection, schedule: Q01DX009 (ip), vehicle: saline 111 % of control

ClCCOc1ccccc1-c1ccccc1
inactive: endpoint: mean survival time, dose: 100.0 mg/kg/injection, schedule: Q04DX003 (ip), vehicle: other 98 % of control | endpoint: mean survival time, dose: 200.0 mg/kg/injection, schedule: Q04DX003 (ip), vehicle: other 96 % of control | endpoint: mean survival time, dose: 400.0 mg/kg/injection, schedule: Q04DX003 (ip), vehicle: other 100 % of control

Cc1nc(N)[nH]c(=O)c1-n1nnc2ccccc2c1=O
inactive: [7] 92 % of control | [8] 87 % of control | [9] 89 % of control

N#CCCN(CCCN1CCOCC1)C(=S)Nc1ccc(Cl)cc1
inactive: [16] 104 % of control | [17] 104 % of control | [18] 93 % of control
